Laboratory results: ChEMBL document CHEMBL1649450, “In vitro activity of micafungin against planktonic and sessile Candida albicans isolates” (2009)
In brackets after ≈: the same amount, converted by molar mass. *1 amine or outer side, *2 acyl side, *3 side chain or, on linkers, in order; H or OH if unused. Where a SMILES comes first, the peptide text is derived from it. Bridges are numbered along the chain shown (N, C = ends). [ ]: non-standard residue; d: D form. The star is where a group is joined. hTyr(3S-OH,4S-OH,3'-OSO3H) = N[C@H](C(=O)O)[C@H](O)[C@@H](O)c1ccc(O)c(OS(=O)(=O)O)c1; pTerphenylCO(4''-OnC5H11) = CCCCCOc1ccc(-c2ccc(-c3ccc(C(=O)*)cc3)cc2)cc1; Orn(4R-OH,5R-OH) = O=C([C@H](C[C@@H](O)[C@@H](O)N[*:3])N[*:1])[*:2]; hTyr(3S-OH,4S-OH) = N[C@H](C(=O)O)[C@H](O)[C@@H](O)c1ccc(O)cc1; Pro(3S-OH,4S-Me) = C[C@H]1CN[C@H](C(=O)O)[C@H]1O; X1 = CCCCCOc1ccc(-c2cc(-c3ccc(C(=O)*)cc3)no2)cc1; Gln(3R-OH) = NC(=O)C[C@@H](O)[C@H](N)C(=O)O; Hyp = O=C(O)[C@@H]1C[C@@H](O)CN1

Legend:
Format in all cases: functional
Candida albicans [1] = test: Antimicrobial activity against Candida albicans clinical isolate biofilm by broth microdilution method
Candida albicans [2] = test: Antimicrobial activity against Candida albicans clinical isolates planktonic cells by broth microdilution method
Candida albicans [3] = test: Antimicrobial activity against Candida albicans clinical isolate sessile cells by microtiter plated based assay
Candida albicans [4] = test: Antimicrobial activity against Candida albicans GDH 2346 sessile cells by microtiter plated based assay
Candida albicans [5] = test: Antimicrobial activity against Candida albicans GDH 2346 planktonic cells by broth microdilution method

**Q.** For `CCCCCOc1ccc(-c2ccc(-c3ccc(C(=O)N[C@H]4C[C@@H](O)[C@@H](O)NC(=O)[C@@H]5[C@@H](O)[C@@H](C)CN5C(=O)[C@H]([C@@H](C)O)NC(=O)[C@H]([C@H](O)[C@@H](O)c5ccc(O)cc5)NC(=O)[C@@H]5C[C@@H](O)CN5C(=O)[C@H]([C@@H](C)O)NC4=O)cc3)cc2)cc1` [ANIDULAFUNGIN] ({pTerphenylCO(4''-OnC5H11)}-[Orn(4R-OH,5R-OH)]T[Hyp][hTyr(3S-OH,4S-OH)]T[Pro(3S-OH,4S-Me)]; lactam 1-C), which MIC90 (Candida albicans [1]) is on record?
**A.** ≤ 0.03 mg/L

**Q.** `CC[C@H](C)C[C@H](C)CCCCCCCCC(=O)N[C@H]1C[C@@H](O)[C@@H](NCCN)NC(=O)[C@@H]2[C@@H](O)CCN2C(=O)[C@H]([C@H](O)CCN)NC(=O)[C@H]([C@H](O)[C@@H](O)c2ccc(O)cc2)NC(=O)[C@@H]2C[C@@H](O)CN2C(=O)[C@H]([C@@H](C)O)NC1=O` [CASPOFUNGIN] was tested. Which MIC90 (Candida albicans [1]) did it give?
**A.** 2 mg/L (≈ 1.83 µM)

**Q.** Which MIC50 (Candida albicans [2]) does the source give for `CCCCCOc1ccc(-c2cc(-c3ccc(C(=O)N[C@H]4C[C@@H](O)[C@@H](O)NC(=O)[C@@H]5[C@@H](O)[C@@H](C)CN5C(=O)[C@H]([C@H](O)CC(N)=O)NC(=O)[C@H]([C@H](O)[C@@H](O)c5ccc(O)c(OS(=O)(=O)O)c5)NC(=O)[C@@H]5C[C@@H](O)CN5C(=O)[C@H]([C@@H](C)O)NC4=O)cc3)no2)cc1` [MICAFUNGIN] (X1-[Orn(4R-OH,5R-OH)]T[Hyp][hTyr(3S-OH,4S-OH,3'-OSO3H)][Gln(3R-OH)][Pro(3S-OH,4S-Me)]; lactam 1-C) here?
**A.** 0.125 mg/L (≈ 0.0984 µM)

**Q.** And the MIC90 (Candida albicans [2])?
**A.** 0.125 mg/L (≈ 0.0984 µM)

**Q.** And the MIC50 (Candida albicans [3])?
**A.** 0.5 mg/L (≈ 0.394 µM)

**Q.** And the MIC90 (Candida albicans [3])?
**A.** 0.5 mg/L (≈ 0.394 µM)

**Q.** And the MIC (Candida albicans [4])?
**A.** 0.53 mg/L (≈ 0.417 µM)

**Q.** What about the MIC (Candida albicans [5]) of the same compound?
**A.** 0.06 mg/L (≈ 0.0472 µM)
